Experimental data taken from the NIST ThermoML archive (doi:10.1021/acs.jced.8b00132).
“And” between values parts separate entries of the source, which are not always exact repeats. Equal values may be shown once. Numbers after ± are expanded uncertainties.

O=C(C(F)(F)C(F)(F)F)C(F)(C(F)(F)F)C(F)(F)F [dodecafluoro-2-methylpentan-3-one]
Details	thermal conductivity
389.64 K, 670 kPa, Liquid, transient hot wire	0.04285 ± 0.0009 W/m/K
389.64 K, 9501 kPa, Liquid, transient hot wire	0.04974 ± 0.001 W/m/K
389.64 K, 9504 kPa, Liquid, transient hot wire	0.04979 ± 0.001 W/m/K
389.65 K, 670 kPa, Liquid, transient hot wire	0.04282 ± 0.0009 W/m/K
389.65 K, 53766 kPa, Liquid, transient hot wire	0.06802 ± 0.0014 W/m/K
389.66 K, 53751 kPa, Liquid, transient hot wire	0.06802 ± 0.0014 W/m/K
389.7 K, 21438 kPa, Liquid, transient hot wire	0.05608 ± 0.0012 W/m/K
389.7 K, 21439 kPa, Liquid, transient hot wire	0.05607 ± 0.0012 W/m/K
389.72 K, 40368 kPa, Liquid, transient hot wire	0.0636 ± 0.0013 W/m/K
389.72 K, 67805 kPa, Liquid, transient hot wire	0.07218 ± 0.0015 W/m/K
389.72 K, 67826 kPa, Liquid, transient hot wire	0.07217 ± 0.0015 W/m/K
389.73 K, 40356 kPa, Liquid, transient hot wire	0.06359 ± 0.0013 W/m/K
389.74 K, 5608 kPa, Liquid, transient hot wire	0.04712 ± 0.00098 W/m/K
389.75 K, 14721 kPa, Liquid, transient hot wire	0.0528 ± 0.0011 W/m/K
389.76 K, 2811 kPa, Liquid, transient hot wire	0.04489 ± 0.00094 W/m/K
389.76 K, 14719 kPa, Liquid, transient hot wire	0.05276 ± 0.0011 W/m/K
389.77 K, 2810 kPa, Liquid, transient hot wire	0.04491 ± 0.00094 W/m/K
389.79 K, 29871 kPa, Liquid, transient hot wire	0.0597 ± 0.0012 W/m/K
389.8 K, 29864 kPa, Liquid, transient hot wire	0.05959 ± 0.0012 W/m/K
389.8 K, 53730 kPa, Liquid, transient hot wire	0.06799 ± 0.0014 W/m/K
389.81 K, 53715 kPa, Liquid, transient hot wire	0.06798 ± 0.0014 W/m/K
389.83 K, 9502 kPa, Liquid, transient hot wire	0.0497 ± 0.001 W/m/K
389.83 K, 9503 kPa, Liquid, transient hot wire	0.04976 ± 0.001 W/m/K
389.84 K, 669 kPa, Liquid, transient hot wire	0.04282 ± 0.0009 W/m/K and 0.04287 ± 0.0009 W/m/K
389.85 K, 670 kPa, Liquid, transient hot wire	0.0428 ± 0.0009 W/m/K and 0.04285 ± 0.0009 W/m/K
389.87 K, 21435 kPa, Liquid, transient hot wire	0.05603 ± 0.0012 W/m/K
389.87 K, 67783 kPa, Liquid, transient hot wire	0.07218 ± 0.0015 W/m/K
389.88 K, 40337 kPa, Liquid, transient hot wire	0.06356 ± 0.0013 W/m/K
389.88 K, 40347 kPa, Liquid, transient hot wire	0.06347 ± 0.0013 W/m/K
389.88 K, 67759 kPa, Liquid, transient hot wire	0.07209 ± 0.0015 W/m/K
389.94 K, 5610 kPa, Liquid, transient hot wire	0.04715 ± 0.00098 W/m/K
389.95 K, 5610 kPa, Liquid, transient hot wire	0.04716 ± 0.00098 W/m/K
389.95 K, 14717 kPa, Liquid, transient hot wire	0.05274 ± 0.0011 W/m/K
389.96 K, 2811 kPa, Liquid, transient hot wire	0.04493 ± 0.00094 W/m/K
389.96 K, 14717 kPa, Liquid, transient hot wire	0.05275 ± 0.0011 W/m/K
389.97 K, 2812 kPa, Liquid, transient hot wire	0.04492 ± 0.00094 W/m/K
389.97 K, 29861 kPa, Liquid, transient hot wire	0.05954 ± 0.0012 W/m/K
389.97 K, 29862 kPa, Liquid, transient hot wire	0.05955 ± 0.0012 W/m/K
389.97 K, 53688 kPa, Liquid, transient hot wire	0.06792 ± 0.0014 W/m/K
389.97 K, 53707 kPa, Liquid, transient hot wire	0.06846 ± 0.0014 W/m/K
390.03 K, 9500 kPa, Liquid, transient hot wire	0.04976 ± 0.001 W/m/K
390.03 K, 9503 kPa, Liquid, transient hot wire	0.04976 ± 0.001 W/m/K
390.06 K, 669 kPa, Liquid, transient hot wire	0.0428 ± 0.0009 W/m/K
390.06 K, 670 kPa, Liquid, transient hot wire	0.04284 ± 0.0009 W/m/K and 0.04279 ± 0.0009 W/m/K
390.06 K, 21434 kPa, Liquid, transient hot wire	0.05598 ± 0.0012 W/m/K
390.06 K, 21436 kPa, Liquid, transient hot wire	0.056 ± 0.0012 W/m/K
390.06 K, 40331 kPa, Liquid, transient hot wire	0.0635 ± 0.0013 W/m/K
390.06 K, 40336 kPa, Liquid, transient hot wire	0.06349 ± 0.0013 W/m/K
390.15 K, 5609 kPa, Liquid, transient hot wire	0.04709 ± 0.00098 W/m/K and 0.04706 ± 0.00098 W/m/K
390.15 K, 14714 kPa, Liquid, transient hot wire	0.05264 ± 0.0011 W/m/K
390.15 K, 29850 kPa, Liquid, transient hot wire	0.0595 ± 0.0012 W/m/K
390.16 K, 14712 kPa, Liquid, transient hot wire	0.05268 ± 0.0011 W/m/K
390.16 K, 29857 kPa, Liquid, transient hot wire	0.0595 ± 0.0012 W/m/K
390.18 K, 2812 kPa, Liquid, transient hot wire	0.04486 ± 0.00094 W/m/K
390.19 K, 2812 kPa, Liquid, transient hot wire	0.04487 ± 0.00094 W/m/K
390.24 K, 9499 kPa, Liquid, transient hot wire	0.04963 ± 0.001 W/m/K
390.25 K, 9501 kPa, Liquid, transient hot wire	0.04969 ± 0.001 W/m/K
390.25 K, 21437 kPa, Liquid, transient hot wire	0.05589 ± 0.0012 W/m/K
390.26 K, 21435 kPa, Liquid, transient hot wire	0.05593 ± 0.0012 W/m/K
390.28 K, 669 kPa, Liquid, transient hot wire	0.04276 ± 0.00089 W/m/K and 0.04278 ± 0.0009 W/m/K
390.29 K, 670 kPa, Liquid, transient hot wire	0.04279 ± 0.0009 W/m/K and 0.04277 ± 0.00089 W/m/K
390.36 K, 14712 kPa, Liquid, transient hot wire	0.05264 ± 0.0011 W/m/K
390.36 K, 14714 kPa, Liquid, transient hot wire	0.05262 ± 0.0011 W/m/K
390.37 K, 5610 kPa, Liquid, transient hot wire	0.04711 ± 0.00098 W/m/K
390.37 K, 5611 kPa, Liquid, transient hot wire	0.04706 ± 0.00098 W/m/K
390.42 K, 2814 kPa, Liquid, transient hot wire	0.04483 ± 0.00094 W/m/K
390.42 K, 2815 kPa, Liquid, transient hot wire	0.04488 ± 0.00094 W/m/K
390.46 K, 9497 kPa, Liquid, transient hot wire	0.04961 ± 0.001 W/m/K
390.46 K, 9500 kPa, Liquid, transient hot wire	0.04968 ± 0.001 W/m/K
390.52 K, 669 kPa, Liquid, transient hot wire	0.04282 ± 0.0009 W/m/K and 0.04283 ± 0.0009 W/m/K
390.53 K, 670 kPa, Liquid, transient hot wire	0.04282 ± 0.0009 W/m/K and 0.04286 ± 0.0009 W/m/K
390.57 K, 5608 kPa, Liquid, transient hot wire	0.04706 ± 0.00098 W/m/K
390.6 K, 5609 kPa, Liquid, transient hot wire	0.04709 ± 0.00098 W/m/K
390.66 K, 2816 kPa, Liquid, transient hot wire	0.04487 ± 0.00094 W/m/K
390.66 K, 2817 kPa, Liquid, transient hot wire	0.04488 ± 0.00094 W/m/K
390.76 K, 669 kPa, Liquid, transient hot wire	0.04287 ± 0.0009 W/m/K
390.78 K, 669 kPa, Liquid, transient hot wire	0.04304 ± 0.0009 W/m/K
402.21 K, 448 kPa, Gas, hot wire	0.02088 ± 0.00098 W/m/K
402.23 K, 447 kPa, Gas, hot wire	0.02061 ± 0.00097 W/m/K
402.27 K, 307 kPa, Gas, hot wire	0.02002 ± 0.00094 W/m/K and 0.01983 ± 0.00093 W/m/K
402.31 K, 156 kPa, Gas, hot wire	0.01939 ± 0.00091 W/m/K
402.31 K, 157 kPa, Gas, hot wire	0.01939 ± 0.00091 W/m/K
402.33 K, 446 kPa, Gas, hot wire	0.02071 ± 0.00098 W/m/K
402.34 K, 445 kPa, Gas, hot wire	0.02068 ± 0.00097 W/m/K
